Data reported in patent publication US9314458B2, “Topical use of ingenol-3-angelate or a salt thereof to treat skin cancer” (LEO Laboratories Limited, priority 2000, dated 2016).

What was measured:
HIV-strain pNL4-3 = assay: HIV-1 replication in acutely infected PBMC (CA-p24 ELISA); format: cell-based; conditions: 2.8 nM
Protocol: Experiments were conducted to assess the effect of the compounds of the instant invention on HIV-1 replication in acutely infected T cells. Peripheral blood mononuclear cells (PBMC) were obtained from non-HIV-1, non-HIV-2, non-Hepatitis B/C infected donors, stimulated with phytohemagglutinin-M and grown in culture media supplemented with 10 U/mL interleukin-2. The activated PBMC were infected with […] (Low Titre) and 100 ng (High Titre) of CA-p24 equivalents of the HIV-strain pNL4-3. Cells were infected for two hr after which, the virus was removed and the cells were washed with culture media. Equivalent numbers of cells were seeded into 24 well plates and compounds were added to the cultured cells that included: TPA at 8 nM and 80 nM, Ingenol at 280 nM, PEP003 at 500 nM, 50 nM and 5 nM, or PEP004 at dilutions of 1×10^4 and 1×10^5 from the stock (final concentrations). In addition, uninfected activated PBMC were grown in the presence of TPA (80 nM), Ingenol (280 nM), PEP003 (500 nM) and PEP004 (1×10^4 dilution). Other cultures were neither infected nor treated with any compound, or infected but not treated with any compound. Supernatant was removed from each culture at day 0, 3, 7, and 10. The amount of HIV-1 CA-p24 was determined using a commercially available ELISA assay. Three independent experiments were performed.

PKCθ = molecular target: T1, PKCθ (Homo sapiens, UniProt Q04759); assay: EGFP-PKC translocation in HeLa cells (PKCθ); format: cell-based; conditions: one hour, same concentrations
T1 construct: host or cells: HeLa cells
T1 sequence (Q04759 whole entry): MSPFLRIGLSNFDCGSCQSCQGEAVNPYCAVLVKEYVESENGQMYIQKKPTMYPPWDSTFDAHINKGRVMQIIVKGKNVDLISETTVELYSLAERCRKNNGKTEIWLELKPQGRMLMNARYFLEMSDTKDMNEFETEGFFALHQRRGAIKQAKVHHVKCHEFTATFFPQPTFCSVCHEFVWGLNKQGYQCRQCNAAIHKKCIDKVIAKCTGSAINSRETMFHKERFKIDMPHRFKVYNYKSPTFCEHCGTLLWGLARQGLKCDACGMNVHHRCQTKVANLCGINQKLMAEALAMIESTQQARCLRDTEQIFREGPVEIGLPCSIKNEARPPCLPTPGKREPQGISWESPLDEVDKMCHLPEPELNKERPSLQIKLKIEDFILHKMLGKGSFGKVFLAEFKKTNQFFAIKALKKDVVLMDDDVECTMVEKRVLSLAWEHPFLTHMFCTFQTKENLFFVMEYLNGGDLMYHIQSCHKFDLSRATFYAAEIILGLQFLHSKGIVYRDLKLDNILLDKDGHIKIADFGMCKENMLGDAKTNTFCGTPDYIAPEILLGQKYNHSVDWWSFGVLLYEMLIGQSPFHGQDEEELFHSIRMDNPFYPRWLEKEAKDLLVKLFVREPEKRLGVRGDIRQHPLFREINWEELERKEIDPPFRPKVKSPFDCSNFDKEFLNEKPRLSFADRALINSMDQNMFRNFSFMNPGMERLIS
Protocol: (§1) Five EGFP-PKC isoforms (Clontech) were available for this experiment, enabling the screening of the three predominant PKC families (i.e. classical, novel and atypical PKCs). The members of the various PKC families are α, β, and γ (classical), θ (novel) and ζ (atypical).
(§2) HeLa cells were plated out in a 24-well plate containing coverslips and transfected with PKC isoforms fused to EGFP, using a commercially available effectine-transfection kit (QIAGEN, Pty. Ltd.). Cells were exposed to the transfection reagents for 16-24 hr. Subsequently, transfected cells were treated for one hour with TPA (100 ng/mL), bryostatin-1 (5 pg/mL), PEP003 (2.25 μg/mL; 5 μM) or PEP005 ([…]) 1.5 μM). Following treatment, cells were fixed on coverslips and mounted on glass slides. The slides were subsequently examined visually by fluorescence microscopy, photographed, and over 150 cells were counted/treatment/PKC isoform. Counted cells were classified according to the localisation of the PKC-EGFP fluorescence as either cytoplasmic or plasma membrane using ImagePro™ 4.1 (FIG. 5). […] The number of these cells was also counted. Results are presented as an average and standard deviation of percentages of cells (Table 1).

[1] = tested on: peripheral blood mononuclear cells; assay: Phagocytosis with fluorescent beads; format: cell-based; conditions: 30 min, whole heparinized blood
Protocol: Phagocytosis by peripheral blood mononuclear cells (PBMCs) was assayed (Steinkamp et al., 1982) using 1 μm Fluoresbrite™ yellow-green fluorescent latex spheres (Polysciences, Inc., Warrington, Pa.). A sample of whole, heparinized blood was treated with drug and 5×10E7 fluorescent latex beads in 10 μL of PBS added per mL of suspension. Cells were incubated and maintained in suspension for 30 min by means of a shaker platform at 37° C. The stimulated and non-stimulated samples were then lysed to isolate PBMCs. The PBMCs were run on the flow cytometer measuring FITC (excitation at 488 nm, emission at 525±20 nm), gated for fluorescence (phagocytosed spheres) and light scatter (cell size).

adenovirus 5 = assay: Adenovirus replication in human melanoma cells; format: cell-based; conditions: 2 days
Description: Human melanoma cells were infected with ten-fold dilutions of adenovirus 5 in culture, treated with dilutions of PEP005, PEP006, PEP008 and PEP010 and adenovirus replication determined 2 days later by immunhistochemical detection of virus-replicating cells.

PKCβ = molecular target: T2, PKCβ (Homo sapiens, UniProt P05771); assay: EGFP-PKC translocation in HeLa cells (PKCβ); format: cell-based; conditions: one hour
T2 construct: host or cells: HeLa cells
T2 sequence (P05771 whole entry, species assumed): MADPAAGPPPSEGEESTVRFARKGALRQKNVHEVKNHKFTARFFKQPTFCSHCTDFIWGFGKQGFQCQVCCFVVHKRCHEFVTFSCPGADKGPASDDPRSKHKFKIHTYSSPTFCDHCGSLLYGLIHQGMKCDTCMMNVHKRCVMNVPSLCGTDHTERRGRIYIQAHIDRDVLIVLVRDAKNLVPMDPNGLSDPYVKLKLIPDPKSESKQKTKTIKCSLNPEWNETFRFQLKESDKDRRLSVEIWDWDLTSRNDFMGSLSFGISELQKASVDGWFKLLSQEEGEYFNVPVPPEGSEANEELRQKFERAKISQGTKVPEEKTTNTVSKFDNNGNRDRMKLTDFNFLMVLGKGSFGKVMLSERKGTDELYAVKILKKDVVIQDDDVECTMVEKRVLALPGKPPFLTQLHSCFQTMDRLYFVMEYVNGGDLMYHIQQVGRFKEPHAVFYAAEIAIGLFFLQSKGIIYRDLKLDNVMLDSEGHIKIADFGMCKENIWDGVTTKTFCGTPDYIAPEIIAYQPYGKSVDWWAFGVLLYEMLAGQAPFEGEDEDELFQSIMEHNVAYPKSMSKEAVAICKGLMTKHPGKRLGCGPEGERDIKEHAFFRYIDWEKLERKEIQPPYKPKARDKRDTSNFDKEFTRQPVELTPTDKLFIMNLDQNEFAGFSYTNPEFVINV
Protocol: as §1, §2

PKCγ = molecular target: T3, PKCγ (Homo sapiens, UniProt P05129); assay: EGFP-PKC translocation in HeLa cells (PKCγ); format: cell-based; conditions: one hour, TPA 100 ng/mL, bryostatin-1 5 pg/mL, PEP003 2.25 μg/mL (5 μM), PEP005 670 μg/mL (1.5 μM)
T3 construct: host or cells: HeLa cells
Protocol: as §1, §2

PKCα = molecular target: T4, PKCα (Homo sapiens, UniProt P17252); format: cell-based; conditions: HeLa, one hour; TPA 100 ng/mL, bryostatin-1 5 pg/mL, PEP003 2.25 μg/mL (5 μM)
T4 construct: host or cells: HeLa cells
Protocol: as §1
as §2, with “counted.” for “counted. Results are presented as an average and standard deviation of percentages of cells (Table 1).”

PKCζ = molecular target: T5, PKCζ (Homo sapiens, UniProt Q05513); assay: EGFP-PKC translocation in HeLa cells (PKCζ); format: cell-based; conditions: one hour, same concentrations
T5 construct: host or cells: HeLa cells
T5 sequence (Q05513 1-592): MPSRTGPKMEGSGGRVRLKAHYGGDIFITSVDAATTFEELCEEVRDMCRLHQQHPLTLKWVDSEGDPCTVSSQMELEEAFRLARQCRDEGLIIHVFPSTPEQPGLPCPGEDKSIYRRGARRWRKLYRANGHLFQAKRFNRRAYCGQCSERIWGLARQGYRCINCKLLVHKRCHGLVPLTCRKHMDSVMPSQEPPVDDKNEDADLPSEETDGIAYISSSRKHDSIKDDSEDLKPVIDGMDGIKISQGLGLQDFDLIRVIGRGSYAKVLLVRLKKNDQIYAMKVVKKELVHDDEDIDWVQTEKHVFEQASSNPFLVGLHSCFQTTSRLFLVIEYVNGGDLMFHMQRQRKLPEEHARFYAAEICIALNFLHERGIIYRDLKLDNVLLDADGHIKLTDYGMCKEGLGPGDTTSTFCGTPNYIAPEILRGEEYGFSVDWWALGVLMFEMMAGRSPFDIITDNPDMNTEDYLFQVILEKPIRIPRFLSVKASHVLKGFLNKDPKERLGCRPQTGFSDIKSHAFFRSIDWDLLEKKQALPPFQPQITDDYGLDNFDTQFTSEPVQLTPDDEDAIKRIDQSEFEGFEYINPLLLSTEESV
Protocol: as §1, §2

[2] = tested on: neonatal foreskin fibroblasts; assay: Pretreated fibroblasts, killing by untreated leukocytes; format: cell-based, human; conditions: targets pretreated with 60 ng/mL for 20 hr, 100:1 effector:target
Protocol: (§3) Leukocytes obtained by lysis of human peripheral blood were added to 5000 MM96L human melanoma cells or 7000 neonatal foreskin fibroblasts per microtitre well at effector: target ratios of 1000, 100 and 10:1. The target cells had been treated with 60 ng/mL PEP008 for 20 hr beforehand, and washed and the medium replaced before the leukocytes were added. After 48 hr incubation with the leukocytes the cultures were washed and labelled with [3H]-thymidine for 2 hr. […] Untreated leukocytes had no effect on cell survival.

[3] = tested on: MM96L human melanoma cells; assay: Leukocytes plus drug, killing of MM96L cells ([3H]-thymidine); format: cell-based; conditions: 60 ng/mL, 48 hr, 100:1 effector:target
Protocol: (§4) Leukocytes obtained by lysis of human peripheral blood were added to 5000 MM96L human melanoma cells or 7000 neonatal foreskin fibroblasts per microtitre well at effector: target ratios of 1000, 100 and 10:1. Ing9 (60 ng/mL) was added and after 48 hr incubation the cultures were washed and labelled with [3H]-thymidine for 2 hr. […] Untreated leukocytes had no effect on cell survival.

[4] = tested on: neonatal foreskin fibroblasts; assay: Leukocytes plus drug, killing of fibroblasts ([3H]-thymidine); format: cell-based, human; conditions: 60 ng/mL, 48 hr, 100:1 effector:target
Protocol: as §4

[5] = tested on: MM96L human melanoma cells; assay: Pretreated MM96L cells, killing by untreated leukocytes; format: cell-based; conditions: targets pretreated with 60 ng/mL for 20 hr, 100:1 effector:target
Protocol: as §3

[6] = tested on: Peripheral blood mononuclear cells (granulocytes, monocytes, lymphocytes); assay: Respiratory burst, DCFH-DA H2O2 flow cytometry; format: cell-based; conditions: 15 min at 37° C.
Protocol: Experiments were also carried out using 2′,7′-dichlorofluorescein diacetate (DCFH-DA) to measure the production of H2O2. (J P Robinson, Oxidative burst methods, in Handbook of Flow Cytometry Methods, Wiley-Liss Inc, pp 147-149, 1993). H2O2 oxidizes the non-fluorescent probe (DCFH-DA) to a fluorescent probe that can then be detected by a flow cytometer. Peripheral blood mononuclear cells (PBMC) were extracted from a donor blood sample by lysis of heparinized blood and used in a suspension of 1×10^6/mL of phosphate buffer, pH 7.3. The cells were then incubated with DCFH-DA (1 μL/mL of 20 mM stock) for 15 minutes to allow it to be taken up and trapped by hydrolysis with cellular esterases. The cells were then stimulated by test compounds for 15 min at 37° C. Controls included in the experiment were unloaded control (cells with no DCFH-DA) and loaded control (cells with DCFH-DA, but no stimulation). These were used to monitor the non-specific oxidation of unstimulated cells. The cells were then analyzed on the flow cytometer (excitation at 488 nm, emission at 525±20 nm), gating each sample for individual cell populations—granulocytes, monocytes and lymphocytes (Table 3).

[7] = tested on: phorbol ester binding site of PKC; assay: [3H]-phorbol dibutyrate competition assay, rat brain homogenate
Protocol: A competition assay was performed to determine whether the diterpene esters of the instant invention bind to the phorbol ester binding site of PKC. […] This binding was not blocked by co-incubation with bisindolylmaleimide.

rat brain PKC = assay: PKC kinase activity, PepTag non-radioactive protein kinase assay; format: biochemical; conditions: PepTag gel; various dilutions of TPA; ether extract final dilution 1 in 5; crude sap and aqueous layer diluted 1/25
Protocol: The kinase activity of rat brain PKC (Promega) was determined using the Peptag™ Non-Radioactive Protein Kinase Kit (Promega). Using agarose gel electrophoresis the technique visualises the opposing electrostatic charge of a fluorescently labeled peptide ([sequence]) compared to the phosphorylated version of the same peptide.
The reaction mixture was separated by gel electrophoresis, showing migration of the unreacted substrate (a) to the anode (top), and the product (b), which is more negatively charged because of phosphorylation by PKC, moving towards the cathode (bottom).

Question: For `CC1=C[C@]23C(=O)[C@@H](C=C(CO)[C@@H](O)[C@]2(O)[C@H]1O)[C@H]1[C@@H](C[C@H]3C)C1(C)C` [Ingenol], which “reduction of HIV-1 replication rate” value (HIV-strain pNL4-3) is on record?
Answer: approximately 35%

Question: How did the “translocation of PKCθ” value (PKCθ) turn out when `C/C=C(/C)C(=O)O[C@H]1C(C)=C[C@]23C(=O)[C@@H](C=C(CO)[C@@H](O)[C@]12O)[C@H]1[C@@H](C[C@H]3C)C1(C)C` [PEP005, ingenol-3-angelate] was run?
Answer: does not induce any change

Question: What about the “phagocytosis of fluorescent latex spheres in PBMCs” value [1] of the same compound?
Answer: stimulate phagocytosis

Question: And the “increase in adenovirus replication (number of stained cells)” value (adenovirus 5; 67 ng/mL)?
Answer: 344%

Question: What about the “number of PKCβ transfected cells with Golgi-like fluorescence” value (PKCβ) of the same compound?
Answer: decreases the number of cells

Question: What about the “translocation of PKCβ from cytoplasm to plasma membrane” value (PKCβ; TPA 100 ng/mL, bryostatin-1 5 pg/mL, PEP003 2.25 μg/mL (5 μM), PEP005 670 μg/mL (1.5 μM)) of the same compound?
Answer: translocated from the cytoplasm to the plasma membrane

Question: What about the “translocation of PKCγ from cytoplasm to plasma membrane” value (PKCγ) of the same compound?
Answer: translocated from the cytoplasm to the plasma membrane

Question: And the “translocation of PKCα from cytoplasm to plasma membrane” value (PKCα)?
Answer: translocated from the cytoplasm to the plasma membrane

Question: What about the “translocation of PKCζ” value (PKCζ) of the same compound?
Answer: fail to induce translocation

Question: Which results are given for `C/C=C(/C)C(=O)O[C@H]1C(C)=C[C@]23C(=O)[C@H](C=C(C)[C@@H](O)[C@]12O)[C@H]1[C@@H](C[C@H]3C)C1(C)C` [PEP006, 20-deoxy-ingenol-3-angelate]?
Answer: phagocytosis of fluorescent latex spheres in PBMCs [1]: stimulate phagocytosis; increase in adenovirus replication (number of stained cells) (adenovirus 5; 295 ng/mL): 256%

Question: With `C/C=C(/C)C(=O)O[C@H]1C(C)=C[C@]23C(=O)[C@@H](C=C(COC(C)=O)[C@@H](O)[C@]12O)[C@H]1[C@@H](C[C@H]3C)C1(C)C` [PEP008, 20-O-acetyl-ingenol-3-angelate] as the compound, how does the “survival of normal fibroblasts” value [2] read?
Answer: 100%

Question: What about the “survival of melanoma cells” value [3] of the same compound?
Answer: 9%

Question: What about the “phagocytosis of fluorescent latex spheres in PBMCs” value [1] of the same compound?
Answer: stimulate phagocytosis

Question: What about the “survival of normal fibroblasts” value [4] of the same compound?
Answer: 100%

Question: And the “increase in adenovirus replication (number of stained cells)” value (adenovirus 5; 226 ng/mL)?
Answer: 248%

Question: And the “survival of melanoma cells” value [5]?
Answer: 12%

Question: `CCC/C=C/C=C/C(=O)O[C@H]1/C(=C/C(=O)OC)C[C@H]2C[C@H]([C@@H](C)O)OC(=O)C[C@H](O)C[C@@H]3C[C@H](OC(C)=O)C(C)(C)[C@](O)(C[C@@H]4C/C(=C/C(=O)OC)C[C@H](/C=C/C(C)(C)[C@]1(O)O2)O4)O3` [bryostatin-1] was tested. Which “translocation of PKCθ” value (PKCθ) did it give?
Answer: translocated

Question: What about the “number of PKCβ transfected cells with Golgi-like fluorescence” value (PKCβ) of the same compound?
Answer: decreases the number of cells

Question: What about the “translocation of PKCγ from cytoplasm to plasma membrane” value (PKCγ) of the same compound?
Answer: not with bryostatin-1

Question: What about the “translocation of PKCζ” value (PKCζ) of the same compound?
Answer: fail to induce translocation

Question: And the “induction of respiratory burst (H2O2, DCFH-DA)” value [6]?
Answer: All compounds except Bryostatin induced a respiratory burst

Question: For bisindolylmaleimide, which “binds to the phorbol ester binding site of PKC” value [7] is on record?
Answer: does not

Question: Which “activation of PKC (FIG. 1)” value (rat brain PKC) does the source give for phosphatidyl serine here?
Answer: strong activation
